The values below come from paper PMC4521925, “17β-Hydroxysteroid Dehydrogenase Type 2 Inhibition: Discovery of Selective and Metabolically Stable Compounds Inhibiting Both the Human Enzyme and Its Murine Ortholog” (PLoS ONE, 2015).

The target of series [1] is T1, m17β-HSD2 (Mus musculus, UniProt P51658).
T1 construct: The microsomal fraction (m17β-HSD2) was obtained from mouse liver as described for h17β-HSD2; tissue Pharmacelsus GmbH (mouse livers); host or cells: mouse liver, microsomal fraction
T1 sequence (P51658 1-381): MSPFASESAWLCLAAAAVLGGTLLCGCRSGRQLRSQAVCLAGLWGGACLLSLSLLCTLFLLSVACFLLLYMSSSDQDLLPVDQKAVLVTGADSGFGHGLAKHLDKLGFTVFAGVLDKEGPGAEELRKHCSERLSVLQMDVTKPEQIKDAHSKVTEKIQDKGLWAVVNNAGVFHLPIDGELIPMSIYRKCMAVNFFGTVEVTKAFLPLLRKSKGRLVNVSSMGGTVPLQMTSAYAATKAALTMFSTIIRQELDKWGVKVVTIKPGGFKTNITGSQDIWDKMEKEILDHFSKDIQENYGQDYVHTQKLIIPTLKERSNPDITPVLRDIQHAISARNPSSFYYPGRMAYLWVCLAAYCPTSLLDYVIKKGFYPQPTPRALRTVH
Briefly: Inhibition of m17β-HSD2 in cell-free assay. The note with it: for % inh. at 1 μM m17β-HSD2: mouse liver microsomal fraction, substrate E2 [500 nM], cofactor NAD+ [1500 μM], Table 1. It counts as biochemical. As to the method:
(§1) h17β-HSD2, h17β-HSD1, m17β-HSD2 and m17β-HSD1 cell-free assays were performed similarly, by incubating enzyme, tritiated substrate, cofactor and inhibitor, according to described procedures.
The microsomal fraction (m17β-HSD2) was obtained from mouse liver as described for h17β-HSD2. Inhibitory activities were evaluated by a method identical to the one described for the human enzyme.
(§2) Inhibitory activities were evaluated following an established method with minor modifications. Briefly, the enzyme preparation was incubated with NAD^+ [1500 μM] in the presence of potential inhibitors at 37C in a phosphate buffer (50 mM) supplemented with 20% of glycerol and EDTA 1mM. Inhibitor stock solutions were prepared in DMSO. Final concentration of DMSO was adjusted to 1% in all samples. […] After 20 min, the incubation was stopped with HgCl2 and the mixture was extracted with ether. After evaporation, the steroids were dissolved in acetonitrile/water (45:55). […] Detection and quantification of the steroids were performed using a radioflow detector (Berthold Technologies, Bad Wildbad). […] Each value was calculated from at least two independent experiments.

For series [2], the target named is T2, h17β-HSD2 (Homo sapiens, UniProt P37059).
T2 sequence (P37059 1-387): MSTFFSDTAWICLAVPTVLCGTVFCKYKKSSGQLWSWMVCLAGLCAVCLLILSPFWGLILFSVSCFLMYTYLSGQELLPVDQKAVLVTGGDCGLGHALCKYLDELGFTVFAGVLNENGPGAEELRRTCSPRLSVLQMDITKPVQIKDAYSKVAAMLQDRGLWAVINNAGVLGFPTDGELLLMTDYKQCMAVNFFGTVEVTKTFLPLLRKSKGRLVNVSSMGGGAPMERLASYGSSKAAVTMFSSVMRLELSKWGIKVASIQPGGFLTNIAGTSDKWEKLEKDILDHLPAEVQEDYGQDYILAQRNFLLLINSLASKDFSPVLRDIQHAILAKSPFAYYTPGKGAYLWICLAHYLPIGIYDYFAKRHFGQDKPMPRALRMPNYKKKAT
Also noted: from tissue; host or cells: human placenta, microsomal fraction. Conditions: human placental microsomal fraction, substrate E2 [500 nM], cofactor NAD+ [1500 μM]; previously described inhibitors; cited from earlier work.

For series [3], the target named is T3, h17β-HSD1 (Homo sapiens, UniProt P14061).
T3 construct: h17β-HSD1 was obtained after precipitation with ammonium sulfate from the cytosolic fraction; from tissue; host or cells: human placenta, cytosolic fraction
T3 sequence (P14061 1-328): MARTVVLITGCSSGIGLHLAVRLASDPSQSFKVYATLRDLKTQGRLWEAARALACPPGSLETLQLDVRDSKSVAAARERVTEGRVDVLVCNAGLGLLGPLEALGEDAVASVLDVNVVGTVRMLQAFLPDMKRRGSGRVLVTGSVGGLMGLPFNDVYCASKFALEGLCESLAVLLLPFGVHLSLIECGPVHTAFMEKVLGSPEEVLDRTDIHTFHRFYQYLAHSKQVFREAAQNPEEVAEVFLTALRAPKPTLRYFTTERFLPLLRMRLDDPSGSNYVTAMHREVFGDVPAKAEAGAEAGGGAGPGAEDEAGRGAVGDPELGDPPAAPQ
Kind of series: Inhibition of h17β-HSD1 in cell-free assay. It counts as biochemical. Conditions: human placental cytosolic fraction, substrate E1 [500 nM], cofactor NADH [500 μM]. On the procedure: as §1
(§3) Cytosolic (h17β-HSD1) and microsomal (h17β-HSD2) fractions were obtained from human placenta according to previously described procedures. Fresh tissue was homogenized and the enzymes were separated from the mitochondria, cell membrane. Nucleus and other rests by fractional centrifugation at 1000 g, 10.000 g and 150.000 g. The pellet fraction containing the microsomal h17β-HSD2 was used for the determination of h17β-HSD2 inhibition, while h17β-HSD1 was obtained after precipitation with ammonium sulfate from the cytosolic fraction for use of testing of h17β-HSD1 inhibition. Aliquots containing h17β-HSD1 or h17β-HSD2 were stored frozen.
The 17β-HSD1 inhibition assay was performed similarly to the h17β-HSD2 test. The human cytosolic enzyme was incubated with NADH [500 μM] while the mouse recombinant enzyme was reacted with NADPH [500 μM].Test compound and a mixture of unlabelled- and [^3H]-E1 (final concentration: 500 nM, 0.15 μCi) were added and mixed for 10 min at 37°C. Further treatment of the samples and HPLC separation was carried out as mentioned above for h17β-HSD2.

Series [4] deals with T2, h17β-HSD2. Kind of series: Inhibition of h17β-HSD2 in cell-free assay. Set-up: from tissue; host or cells: human placenta, microsomal fraction. Type of series: biochemical. The note with it: for s.f. (selectivity factor) = IC50(17β-HSD1)/IC50(17β-HSD2): human enzymes, cell-free. On the procedure:
as §1, §3, §2

Series [5] in a line: Metabolic stability in a cell-free assay (liver S9 fraction). Type of series: in vitro ADME. The note with it: pooled liver S9 fraction; human liver S9 fraction 1 mg/ml, NADPH regenerating system, UDPGA, PAPS, 37°C; inhibitor 1 μM; read-out: Inhibitor t1/2. On the procedure: Compounds 7a, 8a, 16a, 19a, 22a, 27a and 27 were tested according to established method[33–35]For evaluation of phase I and II metabolic stability 1 μM compound was incubated with 1 mg/ml pooled mammalian liver S9 fraction (BD Gentest), 2 mM NADPH regenerating system, 1 mM UDPGA and 0.1 mM PAPS at 37°C for 0, 5, 15 and 60 minutes at a final volume of 100 μL. The incubation was stopped by precipitation of S9 enzymes with 2 volumes of cold acetonitrile containing internal standard. Concentration of the remaining test compound at the different time points was analyzed by LC-MS/MS and used to determine half-life (t1/2).

The target in series [6] is T4, ERα (Homo sapiens, UniProt P03372).
T4 sequence (P03372 1-595): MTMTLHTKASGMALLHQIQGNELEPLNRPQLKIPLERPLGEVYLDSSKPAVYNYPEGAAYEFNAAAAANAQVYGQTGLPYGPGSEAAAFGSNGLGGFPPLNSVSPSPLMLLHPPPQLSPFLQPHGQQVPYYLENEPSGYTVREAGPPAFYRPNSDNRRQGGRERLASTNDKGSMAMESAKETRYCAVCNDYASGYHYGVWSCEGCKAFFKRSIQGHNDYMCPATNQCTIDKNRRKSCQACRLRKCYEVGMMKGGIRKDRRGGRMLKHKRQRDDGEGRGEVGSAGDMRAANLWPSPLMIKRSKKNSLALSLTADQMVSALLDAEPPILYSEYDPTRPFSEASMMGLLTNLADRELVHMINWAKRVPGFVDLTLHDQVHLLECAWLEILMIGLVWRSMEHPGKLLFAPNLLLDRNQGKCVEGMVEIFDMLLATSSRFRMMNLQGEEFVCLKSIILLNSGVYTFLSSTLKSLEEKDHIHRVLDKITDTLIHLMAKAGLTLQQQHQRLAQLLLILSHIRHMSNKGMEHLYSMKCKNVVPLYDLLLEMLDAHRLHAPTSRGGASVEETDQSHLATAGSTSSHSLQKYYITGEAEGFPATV
Kind of series: Estrogen receptor affinity in a cell-free assay (ERα). It counts as binding. The note with it: 1000-fold excess relative to E2; recombinant human ERα. On the procedure:
(§4) The binding affinity of selected compounds to ERα and ERβ was determined according to the recommendations of the US Environmental Protection Agency (EPA) by their Endocrine Disruptor Screening Program (EDSP)[24] using recombinant human proteins.
(§5) The potential inhibitors were dissolved in DMSO (5% final concentration). […] After incubation, ligand-receptor complexes were selectively bound to hydroxyapatite (83.5 g/LinTE-buffer). The bound complex was washed three times and resuspended in ethanol. For radiodetection, scintillator cocktail (Quickszint 212, Zinsser Analytic, Frankfurt) was added and samples were measured in a liquid scintillation counter (1450 LSC & Luminescence Counter, Perkin Elmer).
(§6) After the assay was established and validated, a modification was made to increase throughput.

Series [7] has as its target ERβ (Homo sapiens, UniProt Q92731). Briefly: Estrogen receptor affinity in a cell-free assay (ERβ). Conditions: 1000-fold excess relative to E2; recombinant human ERβ. Type of series: binding. On the procedure: as §4, §5, §6

Read-outs that look alike come from different tables or passages of the source.

Sequence of ERβ (Q92731 whole entry): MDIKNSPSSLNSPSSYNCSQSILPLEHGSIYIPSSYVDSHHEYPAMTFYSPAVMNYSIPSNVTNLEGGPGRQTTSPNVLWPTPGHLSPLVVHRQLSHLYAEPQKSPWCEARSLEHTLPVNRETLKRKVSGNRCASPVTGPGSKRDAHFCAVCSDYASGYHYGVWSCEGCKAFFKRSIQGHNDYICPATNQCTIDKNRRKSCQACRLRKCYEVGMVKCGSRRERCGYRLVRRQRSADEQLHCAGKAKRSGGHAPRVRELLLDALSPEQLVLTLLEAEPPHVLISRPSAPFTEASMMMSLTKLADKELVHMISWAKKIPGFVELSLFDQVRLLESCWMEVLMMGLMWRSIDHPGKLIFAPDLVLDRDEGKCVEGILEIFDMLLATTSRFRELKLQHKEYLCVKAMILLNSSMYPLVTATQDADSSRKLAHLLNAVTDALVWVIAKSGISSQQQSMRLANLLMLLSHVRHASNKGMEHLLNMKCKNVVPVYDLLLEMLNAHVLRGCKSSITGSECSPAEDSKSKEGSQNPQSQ

In the case of `COc1cccc(-c2cccc(C(=O)N(C)c3cccc(OC)c3)c2)c1` [Compound 4a], in series [1], the “% inh. at 1 μM m17β-HSD2” value amounted to 25%. Also, the 50% inhibitory concentration (IC50) in series [2] was 520 nM.

In the case of `COc1cccc(CN(C)C(=O)c2ccc(-c3cccc(C)c3F)cc2)c1` [Compound 25a, 2'-Fluoro-N-(3-methoxybenzyl)-N,3'-dimethyl-[1,1'-biphenyl]-4-carboxamide], the inhibition at 1 µM in series [1] (read-out: % inh. at 1 μM m17β-HSD2) was 43%. For the same molecule, in series [3], inhibition was half-maximal at 87000 nM (IC50). Further, in series [4], the IC50 turned out to be 310 nM and the “s.f. (selectivity factor) = IC50(17β-HSD1)/IC50(17β-HSD2)” value turned out to be 283. Further, in series [5], the half-life at 1 μM amounted to 1.72 h. Besides, the “displacement of E2 from ERα” value in series [6] is given as ≤ 20%. The “displacement of E2 from ERβ” value in series [7] is ≤ 20%.

The molecule `COc1cccc(-c2ccc(C(=O)N(C)c3cccc(OC)c3)cc2)c1` [Compound 7a, 3'-Methoxy-N-(3-methoxyphenyl)-N-methyl-[1,1'-biphenyl]-4-carboxamide] yielded a melting point of 131 to 134 °C. In addition, the IC50 in series [1] is 290 nM. Also, in series [3], the IC50 was 6400 nM. Also, in series [4], the IC50 was determined as 330 nM and the “s.f. (selectivity factor) = IC50(17β-HSD1)/IC50(17β-HSD2)” value is listed as 20. Moreover, the “displacement of E2 from ERα” value in series [6] is ≤ 20%. The “displacement of E2 from ERβ” value in series [7] is on record as ≤ 20%.

Regarding `COc1cccc(N(C)C(=O)c2ccc(-c3cccc(OC)c3F)s2)c1` [Compound 1j], the “% inh. at 1 μM m17β-HSD2” value in series [1] is reported as 26%. Moreover, in series [2], the half-inhibitory concentration (IC50) is 62 nM.

For `CN(Cc1cccc(O)c1)C(=O)c1cccc(-c2cccc(O)c2)c1` [Compound 4e], the “% inh. at 1 μM m17β-HSD2” value in series [1] was 29%. Further, in series [2], the IC50 was 640 nM.

As to `COc1cccc(N(C)C(=O)c2ccc(-c3cccc(N(C)C)c3)s2)c1` [Compound 1g], in series [1], the “% inh. at 1 μM m17β-HSD2” value is reported as 40%. Besides, the IC50 in series [2] was 170 nM.
